Measured values from ChEMBL document CHEMBL4613217, “Synthesis, anti-plasmodial and cytotoxic evaluation of 1H-1,2,3-triazole/acyl hydrazide integrated tetrahydro-β-carboline-4-aminoquinoline conjugates” (Bioorg Med Chem Lett, 2020).

Assays:
[1] = system: Plasmodium falciparum; assay: Antiplasmodial activity against chloroquine-resistant Plasmodium falciparum W2; format: functional, organism-based
[2] = system: Vero; assay: Cytotoxicity against African green monkey Vero cells assessed as reduction in cell viability; format: cell-based; conditions: Chlorocebus sabaeus
[3] = Selectivity Index, ratio of IC50 for African green monkey Vero cells to IC50 for chloroquine-resistant Plasmodium falciparum W2; format: toxicity; conditions: read-out: Ratio IC50

SMILES | IC50 [1] [µM] | IC50 [2] [µM] | selectivity ratio [3]
C[C@@H]1NC(C(=O)NNC(=O)CCNc2ccnc3cc(Cl)ccc23)Cc2c1[nH]c1ccccc21 (some centres not stated) | 2 |  | 
C#CCN1Cc2[nH]c3ccccc3c2CC1C(=O)OCC (configuration not stated) | 4.3 |  | 
O=C(CCCNc1ccnc2cc(Cl)ccc12)NNC(=O)C1Cc2c([nH]c3ccccc23)CN1 (configuration not stated) | 3.1 |  | 
O=C(O)c1ccc(Nc2ccnc3cc(Cl)ccc23)cc1 | 8.6 |  | 
C[C@@H]1NC(C(=O)NNC(=O)CCCNc2ccnc3cc(Cl)ccc23)Cc2c1[nH]c1ccccc21 (some centres not stated) | 3.4 |  | 
O=C(CCCCCNc1ccnc2cc(Cl)ccc12)NNC(=O)C1Cc2c([nH]c3ccccc23)CN1 (configuration not stated) | 2.2 |  | 
CCOC(=O)C1Cc2c([nH]c3ccccc23)CN1Cc1cn(-c2ccnc3cc(Cl)ccc23)nn1 (configuration not stated) | 9.28 |  | 
O=C(NNC(=O)C1Cc2c([nH]c3ccccc23)CN1)c1ccc(Nc2ccnc3cc(Cl)ccc23)cc1 (configuration not stated) | 0.61 | 95.1 | 156
CCOC(=O)C1Cc2c([nH]c3ccccc23)CN1Cc1cn(CCNc2ccnc3cc(Cl)ccc23)nn1 (configuration not stated) | 0.86 | 268 | 312
CCOC(=O)C1Cc2c([nH]c3ccccc23)[C@@H](C)N1Cc1cn(CCNc2ccnc3cc(Cl)ccc23)nn1 (some centres not stated) | 0.93 |  | 
C#CCN1C(C(=O)OCC)Cc2c([nH]c3ccccc23)[C@H]1C (some centres not stated) | 9 |  | 
C[C@H]1NC(C(=O)NNC(=O)c2ccc(Nc3ccnc4cc(Cl)ccc34)cc2)Cc2c1[nH]c1ccccc21 (some centres not stated) | 1.21 | 103 | 84.9
O=C(CCNc1ccnc2cc(Cl)ccc12)NNC(=O)C1Cc2c([nH]c3ccccc23)CN1 (configuration not stated) | 3.1 |  | 
C[C@@H]1NC(C(=O)NNC(=O)CNc2ccnc3cc(Cl)ccc23)Cc2c1[nH]c1ccccc21 (some centres not stated) | 5 |  | 
O=C(CNc1ccnc2cc(Cl)ccc12)NNC(=O)C1Cc2c([nH]c3ccccc23)CN1 (configuration not stated) | 4.4 |  | 
CCOC(=O)C1Cc2c([nH]c3ccccc23)CN1Cc1cn(CCCNc2ccnc3cc(Cl)ccc23)nn1 (configuration not stated) | 0.49 | 246 | 496
CCOC(=O)C1Cc2c([nH]c3ccccc23)[C@@H](C)N1Cc1cn(-c2ccnc3cc(Cl)ccc23)nn1 (some centres not stated) | 4.02 |  | 
CCOC(=O)C1Cc2c([nH]c3ccccc23)[C@@H](C)N1Cc1cn(CCCNc2ccnc3cc(Cl)ccc23)nn1 (some centres not stated) | 1.37 |  | 
C[C@@H]1NC(C(=O)NNC(=O)CCCCCNc2ccnc3cc(Cl)ccc23)Cc2c1[nH]c1ccccc21 (some centres not stated) | 1.8 |  | 
